Laboratory results published in PMC3574204 (Bioorganic & medicinal chemistry, 2013).
Each block holds one compound with its values, some of them ahead of it.

Legend:
[1] = Whole animal toxicity assay; type: in vivo
VEGFR-2 = VEGFR-2 (Homo sapiens, UniProt P35968); assay: Phosphotyrosine ELISA cytoblot, VEGFR-2
[2] = tested on: chicken embryo chorioallantoic membrane (CAM); assay: CAM assay of angiogenesis; details: in vivo
EGFR = EGFR (Homo sapiens, UniProt P00533); assay: Phosphotyrosine ELISA cytoblot, EGFR inhibition in A431 cells; details: for EGFR inhibition improved, fold compared to the corresponding 2-amino analog: 14 vs 8, 15 vs 9, 17 vs 11
EGFR, sequence (P00533 25-1210): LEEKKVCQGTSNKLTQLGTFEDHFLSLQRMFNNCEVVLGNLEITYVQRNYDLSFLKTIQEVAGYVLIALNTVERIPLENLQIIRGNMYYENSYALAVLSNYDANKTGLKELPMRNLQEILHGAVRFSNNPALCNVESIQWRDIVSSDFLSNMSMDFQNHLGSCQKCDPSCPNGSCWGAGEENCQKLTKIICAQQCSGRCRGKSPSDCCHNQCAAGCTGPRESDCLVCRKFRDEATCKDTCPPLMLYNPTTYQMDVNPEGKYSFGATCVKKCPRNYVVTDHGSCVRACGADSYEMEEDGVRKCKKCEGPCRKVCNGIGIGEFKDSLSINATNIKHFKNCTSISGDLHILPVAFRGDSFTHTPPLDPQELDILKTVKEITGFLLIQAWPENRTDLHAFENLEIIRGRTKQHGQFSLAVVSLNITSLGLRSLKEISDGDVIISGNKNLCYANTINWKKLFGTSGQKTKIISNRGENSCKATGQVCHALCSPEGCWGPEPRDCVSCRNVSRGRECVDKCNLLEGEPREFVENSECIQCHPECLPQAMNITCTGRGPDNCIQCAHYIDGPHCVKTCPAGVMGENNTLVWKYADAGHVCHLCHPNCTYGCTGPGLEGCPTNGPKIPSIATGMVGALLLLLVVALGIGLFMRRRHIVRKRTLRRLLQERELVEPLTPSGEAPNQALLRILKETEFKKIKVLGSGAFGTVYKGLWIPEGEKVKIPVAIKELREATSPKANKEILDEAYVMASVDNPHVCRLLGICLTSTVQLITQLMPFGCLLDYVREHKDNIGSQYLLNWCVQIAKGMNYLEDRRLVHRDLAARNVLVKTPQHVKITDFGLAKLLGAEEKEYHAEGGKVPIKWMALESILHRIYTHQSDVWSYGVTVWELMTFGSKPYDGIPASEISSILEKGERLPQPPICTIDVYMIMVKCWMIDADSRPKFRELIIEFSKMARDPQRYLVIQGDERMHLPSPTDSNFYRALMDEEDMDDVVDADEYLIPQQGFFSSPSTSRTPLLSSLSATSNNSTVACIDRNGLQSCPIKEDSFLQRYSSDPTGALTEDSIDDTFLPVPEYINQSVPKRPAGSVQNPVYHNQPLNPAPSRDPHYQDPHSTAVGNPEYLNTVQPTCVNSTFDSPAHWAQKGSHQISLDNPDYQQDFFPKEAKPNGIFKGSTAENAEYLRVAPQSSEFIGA

[3] = tested on: B16-F10 mouse melanoma tumors; assay: B16-F10 syngeneic tumor model; type: in vivo, athymic NCr nu/nu male mice; details: 10 mg/kg IP twice weekly

VEGFR-2, sequence (P35968 20-1356): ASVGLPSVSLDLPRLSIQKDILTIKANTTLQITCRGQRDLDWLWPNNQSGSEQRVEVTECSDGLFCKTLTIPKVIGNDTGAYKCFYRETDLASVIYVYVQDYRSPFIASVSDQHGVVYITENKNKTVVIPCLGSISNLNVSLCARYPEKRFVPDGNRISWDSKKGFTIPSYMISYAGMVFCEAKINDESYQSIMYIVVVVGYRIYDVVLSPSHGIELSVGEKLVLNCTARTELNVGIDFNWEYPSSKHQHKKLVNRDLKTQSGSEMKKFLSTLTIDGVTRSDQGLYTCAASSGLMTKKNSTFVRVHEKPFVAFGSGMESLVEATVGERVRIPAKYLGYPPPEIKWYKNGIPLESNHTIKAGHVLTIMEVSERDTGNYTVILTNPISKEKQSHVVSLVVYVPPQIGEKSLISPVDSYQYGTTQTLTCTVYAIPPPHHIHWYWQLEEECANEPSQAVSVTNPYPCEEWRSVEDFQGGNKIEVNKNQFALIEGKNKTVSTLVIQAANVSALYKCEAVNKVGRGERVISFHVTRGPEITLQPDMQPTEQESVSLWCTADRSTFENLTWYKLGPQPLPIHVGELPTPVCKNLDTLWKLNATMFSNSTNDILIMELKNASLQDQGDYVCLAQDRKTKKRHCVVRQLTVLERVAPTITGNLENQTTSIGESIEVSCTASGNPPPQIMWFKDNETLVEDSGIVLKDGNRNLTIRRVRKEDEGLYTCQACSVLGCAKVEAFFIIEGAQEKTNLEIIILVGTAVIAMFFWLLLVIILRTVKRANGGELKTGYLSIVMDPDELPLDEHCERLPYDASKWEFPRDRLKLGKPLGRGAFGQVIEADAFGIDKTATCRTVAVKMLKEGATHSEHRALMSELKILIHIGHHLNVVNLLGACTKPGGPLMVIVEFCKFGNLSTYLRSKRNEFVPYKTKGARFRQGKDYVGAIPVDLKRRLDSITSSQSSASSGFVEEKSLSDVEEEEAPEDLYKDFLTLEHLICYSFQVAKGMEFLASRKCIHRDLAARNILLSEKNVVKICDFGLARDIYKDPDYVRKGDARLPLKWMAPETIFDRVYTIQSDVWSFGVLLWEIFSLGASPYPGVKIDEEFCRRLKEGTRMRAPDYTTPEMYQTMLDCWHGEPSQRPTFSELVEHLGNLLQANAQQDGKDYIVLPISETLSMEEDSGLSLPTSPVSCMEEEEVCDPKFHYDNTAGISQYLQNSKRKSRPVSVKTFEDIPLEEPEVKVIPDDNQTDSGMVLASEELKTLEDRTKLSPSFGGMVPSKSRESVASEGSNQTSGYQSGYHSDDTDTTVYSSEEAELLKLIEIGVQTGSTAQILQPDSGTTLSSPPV

SMILES: Nc1nc(Nc2ccc(F)c(Br)c2)c2cc(CCc3ccccn3)[nH]c2n1 [Compound 8, N^4-(3-bromo,4-fluorophenyl)-6-(2-pyridin-2-yl-ethyl)-7H-pyrrolo[2,3-d]pyrimidine-2,4-diamine]
- weight loss ([1]; 7.5 or 10 mg/kg twice weekly, compared to untreated): no weight loss
- weight loss ([1]; 20, 17, and 15 mg/kg twice weekly, 6 week time point): significant
- VEGFR-2 inhibition, fold improvement in activity compared to 7 (VEGFR-2): 2 fold
- CAM angiogenesis assay, fold better than semaxanib (27) [2]: 1.2 fold

SMILES: CN(Cc1cnc2nc(N)nc(N)c2n1)c1ccc(C(=O)N[C@@H](CCC(=O)O)C(=O)O)cc1 [MTX, methotrexate]
- B16-F10 primary tumor growth [3]: slightly better at inhibiting primary tumor growth as compared to 8
- decrease in vascular density of B16-F10 tumors ([3]; compared to solvent treated animals): statistically significant
- tumor volume ([3]; compared to untreated animals): significantly less increase in tumor volume

SMILES: CC(C)(C)C(=O)Nc1nc(Nc2cccc(C(F)(F)F)c2)c2cc(CCc3ccccn3)[nH]c2n1 [Compound 17, N-{4-[(3-trifluoromethylphenyl)amino]-6-(2-pyridin-2-yl-ethyl)-7H-pyrrolo[2,3-d]pyrimidin-2-yl}-2,2-dimethylpropanamide]
- EGFR inhibition improved, fold compared to the corresponding 2-amino analog (EGFR): 1.4 fold

Now from value to compound:

- EGFR inhibition improved, fold compared to the corresponding 2-amino analog (EGFR): 6.5 fold
SMILES: CC(C)(C)C(=O)Nc1nc(Nc2ccc(F)c(Cl)c2)c2cc(CCc3ccccn3)[nH]c2n1 [Compound 15, N-{4-[(3-chloro,4-fluorophenyl)amino]-6-(2-pyridin-2-yl-ethyl)-7H-pyrrolo[2,3-d]pyrimidin-2-yl}-2,2-dimethylpropanamide]

- EGFR inhibition improved, fold compared to the corresponding 2-amino analog (EGFR): 16 fold
SMILES: CC(C)(C)C(=O)Nc1nc(Nc2ccc(F)c(Br)c2)c2cc(CCc3ccccn3)[nH]c2n1 [Compound 14, N-{4-[(3-bromo,4-fluorophenyl)amino]-6-(2-pyridin-2-yl-ethyl)-7H-pyrrolo[2,3-d]pyrimidin-2-yl}the-2,2-dimethylpropanamide]

- EGFR inhibitory assay, result in words (EGFR): inactive
SMILES: C#Cc1cccc(Nc2nc(NC(=O)C(C)(C)C)nc3[nH]c(CCc4ccccn4)cc23)c1 [Compound 16, N-{4-[(3-ethynylphenyl)amino]-6-(2-pyridin-2-yl-ethyl)-7H-pyrrolo[2,3-d]pyrimidin-2-yl}-2,2-dimethylpropanamide]

- EGFR inhibition, fold less active than 12 (EGFR): 1.7 fold
SMILES: CC(C)(C)C(=O)Nc1nc(Nc2ccc(F)c(C(F)(F)F)c2)c2cc(CCc3ccccn3)[nH]c2n1 [Compound 18, N-{4-[(3-trifluoromethyl,4-fluorophenyl)amino]-6-(2-pyridin-2-yl-ethyl)-7H-pyrrolo[2,3-d]pyrimidin-2-yl}-2,2-dimethylpropanamide]
